We go through 24 compounds from ChEMBL document CHEMBL5154800, “Identification of N, C-capped di- and tripeptides as selective immunoproteasome inhibitors” (Eur J Med Chem, 2022).

Activity calls are given as the source filed them. The calls are words filed in the database; no cut-off is given here. Some results are limits rather than exact numbers.

Assay [1] addresses T1, Proteasome Macropain subunit MB1 (Homo sapiens, UniProt P28074).
T1 sequence (P28074 whole entry): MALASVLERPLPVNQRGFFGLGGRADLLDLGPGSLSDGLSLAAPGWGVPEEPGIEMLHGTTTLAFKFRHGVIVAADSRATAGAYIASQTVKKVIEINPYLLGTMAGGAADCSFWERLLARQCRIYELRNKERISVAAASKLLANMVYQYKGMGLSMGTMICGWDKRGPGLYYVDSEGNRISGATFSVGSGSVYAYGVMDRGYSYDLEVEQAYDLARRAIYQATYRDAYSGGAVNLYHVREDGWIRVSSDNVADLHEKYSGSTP
The assay can be described thus: Inhibition of 20S proteasome subunit beta-5c (unknown origin) using Ac-WLA-AMC as substrate and measured after 30 mins.

The nature of assay [2]: Selectivity ratio of IC50 for inhibition of 20S proteasome beta 5c subunit (unknown origin) to IC50 for inhibition of 20S proteasome subunit beta-5i.
The test system of the next assay is DOHH-2. The assay can be described thus: Antiproliferative activity against human DOHH-2 cells assessed as growth inhibition at 0.2 uM measured after 72 hrs by MTT assay. Conditions: read-out: GI. In kind it is functional.
The next assay concerns Pfeiffer. The assay can be described thus: Antiproliferative activity against human Pfeiffer cells assessed as growth inhibition at 0.2 uM measured after 72 hrs by MTT assay. Type of assay: functional. As to conditions: read-out: GI. On the technique in general: Tetrazolium assays rely on reduction of a dye to a coloured formazan, in cell work by metabolically active cells.

The subject of the next assay is HCT-116. The assay can be described thus: Antiproliferative activity against human HCT-116 cells assessed as growth inhibition at 0.2 uM measured after 72 hrs by MTT assay. As to conditions: read-out: GI. Type of assay: functional.
The test system of a further assay is HT-29. The assay can be described thus: Antiproliferative activity against human HT-29 cells assessed as growth inhibition at 0.2 uM measured after 72 hrs by MTT assay. In kind it is functional. As to conditions: read-out: GI.
Another assay has as its system MCF7. The assay can be described thus: Antiproliferative activity against human MCF7 cells assessed as growth inhibition at 0.2 uM measured after 72 hrs by MTT assay. Type of assay: functional. Conditions: read-out: GI.
The subject of assay [3] is THP-1. The assay can be described thus: Antiinflammatory activity against LPS-stimulated human THP-1 cells assessed inhibition of TNF-alpha release at 40 uM measured by ELISA. In kind it is functional, cell-based.
The test system of assay [4] is THP-1. The assay can be described thus: Antiinflammatory activity against LPS-stimulated human THP-1 cells assessed inhibition of IL-6 release at 40 uM measured by ELISA. In kind it is functional, cell-based. A general note: An ELISA detects its analyte on a solid surface through an enzyme-linked reagent.
The target of assay [5] is T2, Proteasome subunit beta type-8 (Homo sapiens, UniProt P28062).
T2 sequence (P28062 whole entry): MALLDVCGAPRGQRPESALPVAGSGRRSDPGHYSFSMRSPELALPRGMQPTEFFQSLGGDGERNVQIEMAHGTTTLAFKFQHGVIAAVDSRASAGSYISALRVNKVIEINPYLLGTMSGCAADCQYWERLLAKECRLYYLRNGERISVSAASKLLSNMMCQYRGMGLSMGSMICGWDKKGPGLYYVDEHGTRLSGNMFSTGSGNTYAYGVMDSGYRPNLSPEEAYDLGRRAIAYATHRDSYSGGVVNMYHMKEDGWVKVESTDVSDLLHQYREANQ
The assay can be described thus: Inhibition of 20S proteasome subunit beta-5i (unknown origin) using Ac-ANW-AMC as substrate and measured after 30 mins.

As usually defined, the IC50 is the concentration that gives 50% inhibition. High values mean weaker potency, low ones greater potency. In assay [1], `CC(C)(C)NC(=O)CC[C@H](NC(=O)CCNC(=O)CCl)C(=O)N[C@@H](Cc1ccccc1)C(=O)NCc1ccc(OC(F)(F)F)cc1` yielded an IC50 above 5 µM. Besides, the Ratio IC50 in assay [2] was above 14.

With `CC(C)(C)NC(=O)CC[C@H](NC(=O)CCNC(=O)/C(C#N)=C/c1ccc(Cl)cc1)C(=O)N[C@@H](Cc1ccccc1)C(=O)NCc1cccc2ccccc12`, the Ratio IC50 in assay [2] was determined as 124. The inhibition of growth at 0.2 µM in the assay with DOHH-2 is 34%; in the assay on Pfeiffer it was 32%; in the assay on HCT-116, 26%; in the assay on HT-29 it was below 20%; in the assay with MCF7 it was below 20%. Further, the outcome in the assay with THP-1 [3] and with THP-1 [4] was Active.

With `Cc1ccc(CNC(=O)[C@H](Cc2ccccc2)NC(=O)[C@H](CC(=O)NCC2CCCO2)NC(=O)[C@H](CNC(=O)CCl)NC(=O)CN2CCOCC2)cc1` (stereo partly specified), the half-inhibitory concentration (IC50) stood at 0.138 µM in [5] and 0.43 µM in assay [1]. Moreover, the Ratio IC50 in [2] amounted to 3.

For `COC(=O)C1CCN(C(=O)C[C@H](NC(=O)[C@H](CNC(=O)CCl)NC(=O)CN2CCOCC2)C(=O)N[C@@H](Cc2ccccc2)C(=O)NCc2ccc(C)cc2)CC1`, the IC50 in assay [5] was 0.644 µM; in [1], above 0.644 µM. The Ratio IC50 in assay [2] was above 16.

For the compound `Cc1ccc(CNC(=O)CNC(=O)[C@H](CCC(=O)NC(C)(C)C)NC(=O)[C@H](CNC(=O)CCl)NC(=O)CN2CCOCC2)cc1`, the IC50 in assay [5] is 0.0944 µM; in [1], 3.85 µM. Moreover, in assay [2], the Ratio IC50 was 41.

For `Cc1ccc(CNC(=O)[C@H](Cc2ccccc2)NC(=O)[C@H](CCC(=O)NC(C)(C)C)NC(=O)CCNC(=O)/C(C#N)=C/C2CC2)cc1`, half-maximal inhibition in [5] (IC50) required 0.00964 µM. In addition, the Ratio IC50 in assay [2] is 7. Further, the inhibition of growth at 0.2 µM in the assay on DOHH-2 was 25%; in the assay with Pfeiffer, below 20%; in the assay on HCT-116, 26%; with HT-29 it was below 20%; with MCF7, 22%.

In the case of `CCC(=O)NCCC(=O)N[C@@H](CCC(=O)NC(C)(C)C)C(=O)N[C@@H](Cc1ccccc1)C(=O)NCc1cccc2ccccc12`, in assay [2], the Ratio IC50 amounted to 274. Besides, the inhibition of growth at 0.2 µM in the assay on DOHH-2, with Pfeiffer, in the assay on HCT-116, with HT-29 and in the assay with MCF7 was below 20% throughout. Besides, the outcome in the assay on THP-1 [3] and in the assay with THP-1 [4] was Active.

Compound `CC(C)(C)NC(=O)CC[C@H](NC(=O)CCNC(=O)CCl)C(=O)N[C@@H](Cc1ccccc1)C(=O)NCc1ccc(C#N)cc1C(F)(F)F` gave a half-inhibitory concentration (IC50) in assay [5] above 5 µM.

In turn, `Cc1ncsc1-c1ccc(CNC(=O)[C@H](Cc2ccccc2)NC(=O)[C@H](CCC(=O)NC(C)(C)C)NC(=O)CCNC(=O)CCl)cc1` had an IC50 in assay [1] above 5 µM. For the same compound, the Ratio IC50 in [2] is above 11.

In assay [5], `Cc1ccc(CNC(=O)[C@H](Cc2cccc(F)c2)NC(=O)[C@H](CCC(=O)NC(C)(C)C)NC(=O)CCNC(=O)CCl)cc1` registered an IC50 of 0.00651 µM. The Ratio IC50 in assay [2] worked out at 20. The inhibition of growth at 0.2 µM in the assay on DOHH-2 was below 20%; with Pfeiffer, 29%; in the assay with HCT-116, 35%; in the assay with HT-29 it was below 20%; in the assay with MCF7 it was below 20%.

Consider `Cc1ccc(CNC(=O)[C@H](Cc2ccccc2)NC(=O)[C@H](CCC(=O)N2CCCC2)NC(=O)[C@H](CNC(=O)CCl)NC(=O)CN2CCOCC2)cc1`, for which the IC50 in [1] was determined as 3.57 µM. The Ratio IC50 in assay [2] was 10.

Turning to `CC(C)(C)NC(=O)CC[C@H](NC(=O)CCNC(=O)CCl)C(=O)N[C@@H](Cc1ccccc1)C(=O)NCc1ccc2ccccc2c1`, the Ratio IC50 in [2] came to 15. For the same compound, the inhibition of growth at 0.2 µM in the assay with DOHH-2 was below 20%; in the assay with Pfeiffer it was 25%; in the assay on HCT-116, 39%; in the assay on HT-29, below 20%; in the assay with MCF7 it was below 20%.

Take `CC[C@H](NC(=O)[C@H](CCC(=O)NC(C)(C)C)NC(=O)CCNC(=O)CCl)C(=O)NCc1ccc(C)cc1`: the IC50 in [5] came out at 0.0616 µM; in [1], 0.204 µM. In assay [2], the Ratio IC50 was 3.

For the compound `CC(C)(C)NC(=O)CC[C@H](NC(=O)CCNC(=O)CCl)C(=O)N[C@@H](Cc1ccccc1)C(=O)NCc1ccccc1C(F)(F)F`, the concentration for half-maximal inhibition (IC50) in assay [1] is above 5 µM. The Ratio IC50 in assay [2] is above 19.

As for `CC(C)(C)NC(=O)CC[C@H](NC(=O)CCNC(=O)CCl)C(=O)N[C@@H](Cc1ccccc1)C(=O)NCc1ccc(S(C)(=O)=O)cc1`, in assay [5], the half-maximal inhibitory concentration (IC50) was above 5 µM.

Turning to `Cc1ccc(CNC(=O)CNC(=O)[C@H](CCC(=O)NC(C)(C)C)NC(=O)CCNC(=O)CCl)cc1`, the IC50 came out at 0.626 µM in assay [5] and 3.79 µM in assay [1]. Besides, the Ratio IC50 in [2] turned out to be 6.

For `Cc1ccc(CNC(=O)[C@H](Cc2ccccc2)NC(=O)[C@H](CCC(=O)NC(C)(C)C)NC(=O)[C@H](CNC(=O)CCl)NC(=O)CN2CCOCC2)cc1`, in assay [2], the Ratio IC50 amounted to 14. In addition, the inhibition of growth at 0.2 µM was below 20% in the assay with DOHH-2; 32% in the assay on Pfeiffer; 29% with HCT-116; below 20% in the assay with HT-29; below 20% in the assay with MCF7.

Consider `Cc1[nH]c2ccc(CNC(=O)[C@H](Cc3ccccc3)NC(=O)[C@H](CCC(=O)NC(C)(C)C)NC(=O)CCNC(=O)CCl)cc2c1C`, for which the 50% inhibitory concentration (IC50) in assay [5] stood at 0.0365 µM. Besides, the Ratio IC50 in [2] was 27.

Regarding `COC[C@H](NC(=O)[C@H](CCC(=O)NC(C)(C)C)NC(=O)CCNC(=O)CCl)C(=O)NCc1ccc(C)cc1`, the IC50 in [5] came to 0.0439 µM; in assay [1] it was 0.0794 µM. For the same compound, the Ratio IC50 in assay [2] came to 2.

Consider `Cc1ccc(CNC(=O)[C@H](Cc2ccccc2)NC(=O)[C@H](CCC(=O)NC(C)(C)C)NC(=O)[C@H](CNC(=O)CCl)NC(=O)OC(C)(C)C)cc1`, for which the Ratio IC50 in [2] turned out to be 6. For the same compound, the inhibition of growth at 0.2 µM in the assay with DOHH-2 is below 20%; with Pfeiffer, 29%; with HCT-116 it was 46%; in the assay on HT-29, 11%; with MCF7 it was below 20%.

Consider `CC(C)(C)NC(=O)CC[C@H](NC(=O)CCNC(=O)CCl)C(=O)N[C@@H](Cc1ccccc1)C(=O)NCc1cccc(C(F)(F)F)c1`, for which the IC50 in [5] worked out at 0.125 µM. Moreover, the Ratio IC50 in assay [2] is 22.

For the compound `Cc1ccc(CNC(=O)[C@H](Cc2ccccc2F)NC(=O)[C@H](CCC(=O)NC(C)(C)C)NC(=O)CCNC(=O)CCl)cc1`, half-maximal inhibition in assay [1] (IC50) was put at 0.0815 µM. The Ratio IC50 in [2] was determined as 4.

With `Cc1ccc(CNC(=O)[C@H](Cc2c[nH]c3ccccc23)NC(=O)[C@H](CCC(=O)NC(C)(C)C)NC(=O)CCNC(=O)CCl)cc1`, the concentration for half-maximal inhibition (IC50) in assay [5] worked out at 0.00733 µM; in assay [1], 0.0137 µM. Besides, the Ratio IC50 in assay [2] turned out to be 2. Further, the inhibition of growth at 0.2 µM is below 20% in the assay on DOHH-2; 28% in the assay with Pfeiffer; 29% in the assay on HCT-116; below 20% in the assay with HT-29; below 20% with MCF7.

On to `Cc1ccc(CNC(=O)[C@H](Cc2ccccc2)NC(=O)[C@H](CCC(=O)NC(C)(C)C)NC(=O)CCNC(=O)CCl)cc1`, for which, in assay [2], the Ratio IC50 was 12. Moreover, the inhibition of growth at 0.2 µM in the assay on DOHH-2 was 36%; in the assay with Pfeiffer, below 20%; with HCT-116, 49%; in the assay with HT-29, below 20%; in the assay on MCF7, below 20%.
